Laboratory results from patent EP2201946A1, “PAI-1 PRODUCTION INHIBITOR” (Institute of Medicinal Molecular Design, Inc., priority 2007, dated 2009).

Legend:
[1] = tested on: TGF-β induced PAI-1 production; test: TGF-β induced PAI-1 production in HT1080 cells (Western blotting); assay type: cell-based; details: TGF-β1 10 ng/mL, 6-hours incubation
Method: After incubating HT1080 cells for 48 hours in the MEM medium containing 10%FBS (Fetal Bovine Serum), the medium was changed to a MEM medium containing 1% FBS, and TGF-β1 (final concentration: 10 ng/mL) only, or TGF-β1 (final concentration: 10 ng/mL) and the test substances were added and incubated. As a control, a culture solution without neither TGF-β1 nor the test substances was prepared. After 6-hours incubation, the culture fluids were collected, and the PAI-1 amounts in the culture fluids were measured by the Western blotting. The PAI-1 amount when TGF-β1 only was added being "100%," and the PAI-1 amount in the control being "0%," PAI-1 I amounts at each concentration of the test substances (PAI-1 inhibition ratios) were calculated, and the concentrations of the compounds, which inhibited PAI-1 production to 50% (IC50) in amount, were obtained.

[2] = tested on: TGF-β induced PAI-1 production; test: TGF-β induced PAI-1 production in HepG2 cells (Human Serpin E1/PAI-1 DuoSet); assay type: cell-based; details: Compound Concentration : 1μM, TGF-β1 1ng/mL, 24 hours
Method: HepG2 cells were seeded on a 96-well culture plate by 2x10^4 cells/well, and were incubated for 24 hours in the MEM medium containing 1% NEAA (Non-Essential Amino Acids), 1mM pyruvate, and 10% FBS. Then, the medium was changed to a MEM medium containing 1% NEAA, 1mM pyruvate and 1% FBS, and the cells were further incubated for 24 hours. Subsequently, after the medium was changed to a MEM medium containing 1% NEAA, 1mM pyruvate and 1% FBS, and then the cells were treated with the test substances (final concentration: 1 µM or 0.1 µM) for one hour, TGF-β1 (final concentration.1ng/mL) was added and the cells were further incubated for 24 hours. As controls, a culture solution added TGF-β1 only and a culture solution cultured without neither the test substances nor TGF-β1 were prepared. After the incubation, the PAI-1 amount was measured using Human Serpin E1/PAI-1 DuoSet (R&D Systems). The PAI-1 amount when treated with TGF-β1 only being "100%", and the PAI-1 amount when treated without neither the test substances nor TGF-β1 being "0%", the PAI-1 inhibition ratios of each test substance were calculated. IC50 of the compound (2) was about 50 nM.

[3] = tested on: Chronic Obstructive Pulmonary Disease (COPD) model; test: Collagen accumulation in alveoli of guinea pigs exposed to cigarette smoke (Masson-trichrome, image analysis); assay type: in vivo; details: smoke of 40 cigarettes a day for 25 days, oral once a day for 25 days, compound (1) 30 or 100 mg/kg/day, prednisolone 10 mg/kg/day (Fig. 2)
Method: Using the smoking exposure system (INH06-CIG01A, MIPS Inc.), 6-week old guinea pigs (Std: male Hartley, Japan SLC, Inc.) were exposed to smoke of 40 cigarettes (Peace (Registered Trademark), Japan Tobacco, Inc.) a day (20 cigarettes twice) for 25 continuous days (Chronic Obstructive Pulmonary Disease (COPD) model group: Control group: n=10). To theseguinea pigs, from the day of exposure to the smoke of tobacco, the compound (1) (30 mg/kg/day or 100 mg/kg/day) or prednisolone (10 mg/kg/day) was continuously administered orally once a day for 25 days (Compound (1) 30 mg administered group: n=5, Compound (1) 100 mg administered group: n=5, Prednisolone administered group: n=5). Furthermore, as a normal group, guinea pigs (n=5) exposed to air without the administration of the compound (1) and prednisolone were prepared. On the following day of the last exposure, after preparing paraffin sections in the lungs of each guinea pig, collagen was stained by the Masson-trichrome method, and the accumulations of collagen in the alveoli were measured by the area rate with the image analysis. […] Next, the above paraffin section was stained by the immunostaining method using an anti PAI-1 antibody (PAI-1 H-135; Santa Cruz; 250-fold dilution), and the ratio of PAI-1 expression cells to the total cell numbers infiltrated in the lung was measured. […]

SMILES	IC50 [1] [nM]	Inhibition Ratio (%) [2] [%]	accumulation of collagen in the alveoli (area rate) [3]
O=C(Nc1cc(C(F)(F)F)ccc1C(F)(F)F)c1cc(Br)ccc1O [(3)]	83	>90	–
C[C@]12C=CC(=O)C=C1CC[C@@H]1[C@@H]2[C@@H](O)C[C@@]2(C)[C@H]1CC[C@]2(O)C(=O)CO [prednisolone]	–	–	not able to inhibit the accumulation of collagen
